# Source: patent publication US7910623B2, “Synthesis of scabronines and analogues thereof” (Sloan-Kettering Institute for Cancer Research, priority 2008, dated 2011)
# Entries after “also recorded” stand apart in the source; their conditions may differ. Where two headings read alike, the source gives them in different places.
# Assays:
# [1] = test system: rat pheochromocytoma cells (PC-12); conditions: cited from earlier work
# [2] = test system: 1321N1 human astroglial cells; conditions: cited from earlier work
# 1321N1 human glial cells = experiment: Biosynthesis and secretion of neurotrophic factors from 1321N1 cells treated with compound; type: cell-based; conditions: 30 μM, 48 hours
# Experimental: (§1) The 1321N1 human astrocytoma cells were cultured in Dulbecco's modified Eagles's medium (DMEM) supplemented with 2 mM L-Glutamine and 10% fetal bovine serum (FBS). PC-12 cells were grown in F-12K medium supplemented with 15% horse serum and 2.5% FBS. For compound treatment, 1321N1 cells were incubated with compounds 2 and 8 at 30 μM for 48 hours in DMEM medium. The resulting conditioned media from the 1321N1 cells were used to culture PC-12 cell for induction of PC-12 neurite outgrowth. After 3 days incubation, PC-12 cells were washed with phosphate-buffered saline (PBS) and fixed with 4% paraformaldeyde. Neurites were observed under a phase-contrast ECLIPSE TE2000-S Nikon microscope.
# PC-12 cells = experiment: Neurite outgrowth of PC-12 cells cultured in compound-conditioned 1321N1 medium; type: cell-based, rat; conditions: 1321N1 medium conditioned with compound at 30 μM for 48 hours, PC-12 3 days; for neurite outgrowth of PC-12 cells: vs DMSO control
# Experimental: as §1
# The differentiation of PC-12 cells was scored as follows: cells without neurites were scored 0; cells with neurites as long as one cell body diameter were scored 1; cells with neurites 2-3 times longer than their cell body diameter were scored 2; and cells with neurites that were extremely long or forming a network were scored 3. The mean of differentiation scores were obtained from 200 cells (4 wells) under the phase-contrast microscope. Data are expressed as means±S.E.M (standard error of mean). Values represent the Means±S.E.M. for four wells.
Structure (SMILES),neuronal differentiation of PC-12 cells [1],production and excretion of nerve growth factor (NGF) [2],production and excretion of nerve growth factor (NGF) ([2]; listed as scabronine G),biosynthesis and secretion of neurotrophic factors (1321N1 human glial cells),neurite outgrowth of PC-12 cells compared with compound 2 or purified NGF (50 ng/mL) (PC-12 cells),neurite outgrowth of PC-12 cells (PC-12 cells)
"CC(C)C1=C2[C@H]3CC=C(C=O)CC(=O)[C@]3(C)CC[C@@]2(C(=O)O)CC1 [Compound 1, Scabronine G]",dramatic neuronal differentiation,induce the production and excretion of nerve growth factor (NGF),induces the production and excretion of nerve growth factor (NGF),–,–,–
"COC(=O)[C@]12CCC(C(C)C)=C1[C@H]1CC=C(C=O)CC(=O)[C@]1(C)CC2 [Compound 2, Scabronine G Methyl Ester]",dramatic neuronal differentiation,–,–,effectively enhanced the biosynthesis and secretion of neurotrophic factors,comparable to those produced by direct exposure of PC-12 cells to purified NGF; also recorded: same degree of neurite outgrowth as that of 50 ng/mL of NGF,significant neurite outgrowth; also recorded: significantly induced neurite outgrowth
COC(=O)[C@]12CCC(C(C)C)=C1[C@H]1CCC(C=O)=CC(=O)[C@]1(C)CC2 [Compound 8],–,–,–,–,greater activity as evidenced by increased neurite length; also recorded: comparable to those produced by direct exposure of PC-12 cells to purified NGF; also recorded: greater potency than compound 2,significantly induced neurite outgrowth
